Experimental data published in patent US20180353462A1, “[…] AGENTS […] FLAVONOID DERIVATIVES TARGETING KINASES, SIRTUINS AND ONCOGENIC AGENTS FOR THE TREATMENT OF CANCERS” (priority 2015, published 2018).

Experiments:
[1] = molecular target: T1, c-Kit(Y823D) (Homo sapiens, UniProt P10721, Y823D); assay: Kinase competition binding assay, c-Kit(Y823D); details: Table 1 kinase panel
T1 construct: made in house
Protocol: (§1) Cannabis flavonoids and their analogs were subjected to kinase inhibition assay. The compounds were first screened at a single concentration of 10 μM in the primary assay. […]. To determine the kd or IC50 values, competition binding assays were established, authenticated and executed as described previously. Fabian et al., “A Small Molecule-Kinase Interaction Map For Clinical Kinase Inhibitors.”, Nat Biotechnol, 23(3):329-36, Epub (2005). See also, Karaman et al., “A Quantitative Analysis Of Kinase Inhibitor Selectivity”, Nat. Biotechnol. […] For most assays, kinases were fused to T7 phage strains (Fabian, supra) and for the other assays, kinases were produced in HEK-293 cells after which they were tagged with DNA for quantitative PCR detection. In general, full-length constructs were used for small, single domain kinases, and catalytic domain constructs for large multi-domain kinases. The binding assays utilized streptavidin-coated magnetic beads treated with biotinylated small molecule ligands for 30 minutes at room temperature which generated affinity resins for the kinase assays. The liganded beads were blocked with excess biotin and washed with blocking buffer (SeaBlock (Pierce), 1% BSA, 0.05% Tween 20, 1 mM DTT) to remove unbound ligand and to reduce non-specific phage binding. […] Test compounds were prepared as 40× stocks in 100% DMSO and diluted directly into the assay (Final DMSO concentration=2.5%). All reactions were performed in polypropylene 384-well plates in a final volume of 0.04 ml. […] The beads were then re-suspended in elution buffer (1×PBS, 0.05% Tween 20, 0.5 μM non-biotinylated affinity ligand) and incubated at room temperature with shaking for 30 minutes. The kinase concentration in the eluates was measured by quantitative PCR. An illustration of the kinase interaction process is presented below. Kd/IC50 values were determined using a standard dose response curve using the hill equation. Curves were fitted using a non-linear least square fit with the Levenberg-Marquardt algorithm.
(§2) The compound(s) were screened at 10 μM and results for primary screen binding interactions are reported as ‘% Ctrl’, where lower numbers indicate stronger hits in the matrix.

[2] = molecular target: T2, FLT4(VEGFR3) (Homo sapiens, UniProt P35916); assay: Kinase competition binding assay, FLT4(VEGFR3); details: Table 1 kinase panel
T2 construct: made in house
T2 sequence (P35916 25-1363): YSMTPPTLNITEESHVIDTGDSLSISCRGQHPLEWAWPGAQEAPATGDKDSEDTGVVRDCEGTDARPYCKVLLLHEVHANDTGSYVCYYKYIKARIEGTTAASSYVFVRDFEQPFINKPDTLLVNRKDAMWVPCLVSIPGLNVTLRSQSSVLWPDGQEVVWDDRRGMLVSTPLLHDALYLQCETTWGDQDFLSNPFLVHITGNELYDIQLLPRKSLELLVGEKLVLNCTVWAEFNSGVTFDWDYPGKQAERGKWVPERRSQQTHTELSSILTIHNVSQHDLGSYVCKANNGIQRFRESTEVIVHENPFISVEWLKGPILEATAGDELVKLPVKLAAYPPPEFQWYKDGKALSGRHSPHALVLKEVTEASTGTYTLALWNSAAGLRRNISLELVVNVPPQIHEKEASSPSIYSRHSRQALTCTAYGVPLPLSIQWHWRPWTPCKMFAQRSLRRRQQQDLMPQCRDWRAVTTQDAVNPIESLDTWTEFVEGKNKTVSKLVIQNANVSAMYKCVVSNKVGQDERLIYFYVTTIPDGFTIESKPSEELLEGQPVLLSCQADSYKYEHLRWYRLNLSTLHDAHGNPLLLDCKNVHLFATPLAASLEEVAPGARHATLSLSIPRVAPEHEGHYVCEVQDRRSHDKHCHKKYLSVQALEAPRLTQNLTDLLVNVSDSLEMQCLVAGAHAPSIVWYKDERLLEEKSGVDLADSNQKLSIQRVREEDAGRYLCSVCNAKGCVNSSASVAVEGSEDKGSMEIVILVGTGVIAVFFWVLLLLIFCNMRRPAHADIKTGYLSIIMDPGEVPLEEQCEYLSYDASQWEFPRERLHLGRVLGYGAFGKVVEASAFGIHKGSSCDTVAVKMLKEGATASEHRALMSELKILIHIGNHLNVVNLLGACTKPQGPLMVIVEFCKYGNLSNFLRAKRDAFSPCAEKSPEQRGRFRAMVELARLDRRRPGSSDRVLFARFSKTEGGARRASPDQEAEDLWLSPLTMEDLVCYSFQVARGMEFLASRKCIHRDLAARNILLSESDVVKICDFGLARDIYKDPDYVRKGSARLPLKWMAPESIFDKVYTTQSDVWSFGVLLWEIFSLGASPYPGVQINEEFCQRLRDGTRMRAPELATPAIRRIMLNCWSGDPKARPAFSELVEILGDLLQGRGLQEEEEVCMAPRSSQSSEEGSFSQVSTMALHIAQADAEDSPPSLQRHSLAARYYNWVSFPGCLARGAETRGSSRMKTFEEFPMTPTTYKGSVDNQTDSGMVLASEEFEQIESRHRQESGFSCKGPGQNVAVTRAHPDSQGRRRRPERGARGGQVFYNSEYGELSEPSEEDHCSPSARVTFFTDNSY
Protocol: as §1, §2

[3] = molecular target: T3, MEK5 (Homo sapiens, UniProt Q13163); assay: Kinase competition binding assay, MEK5; details: Table 1 kinase panel
T3 construct: made in house
T3 sequence (Q13163 1-448): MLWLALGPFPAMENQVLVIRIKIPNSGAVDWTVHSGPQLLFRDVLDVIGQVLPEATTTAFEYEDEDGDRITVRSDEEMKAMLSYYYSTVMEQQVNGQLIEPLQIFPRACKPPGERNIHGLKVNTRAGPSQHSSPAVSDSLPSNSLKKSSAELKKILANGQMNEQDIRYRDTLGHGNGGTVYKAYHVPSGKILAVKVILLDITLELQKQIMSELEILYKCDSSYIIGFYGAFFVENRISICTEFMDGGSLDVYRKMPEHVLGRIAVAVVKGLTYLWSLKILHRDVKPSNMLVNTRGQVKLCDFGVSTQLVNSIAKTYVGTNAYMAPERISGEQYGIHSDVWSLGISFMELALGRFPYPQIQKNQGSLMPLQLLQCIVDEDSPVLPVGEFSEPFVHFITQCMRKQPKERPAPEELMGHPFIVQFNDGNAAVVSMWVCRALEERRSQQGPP
Protocol: as §1, §2

[4] = molecular target: T4, EPHB6 (Homo sapiens, UniProt O15197); assay: Kinase competition binding assay, EPHB6; details: Table 1 kinase panel
T4 construct: made in house
T4 sequence (O15197 32-1021): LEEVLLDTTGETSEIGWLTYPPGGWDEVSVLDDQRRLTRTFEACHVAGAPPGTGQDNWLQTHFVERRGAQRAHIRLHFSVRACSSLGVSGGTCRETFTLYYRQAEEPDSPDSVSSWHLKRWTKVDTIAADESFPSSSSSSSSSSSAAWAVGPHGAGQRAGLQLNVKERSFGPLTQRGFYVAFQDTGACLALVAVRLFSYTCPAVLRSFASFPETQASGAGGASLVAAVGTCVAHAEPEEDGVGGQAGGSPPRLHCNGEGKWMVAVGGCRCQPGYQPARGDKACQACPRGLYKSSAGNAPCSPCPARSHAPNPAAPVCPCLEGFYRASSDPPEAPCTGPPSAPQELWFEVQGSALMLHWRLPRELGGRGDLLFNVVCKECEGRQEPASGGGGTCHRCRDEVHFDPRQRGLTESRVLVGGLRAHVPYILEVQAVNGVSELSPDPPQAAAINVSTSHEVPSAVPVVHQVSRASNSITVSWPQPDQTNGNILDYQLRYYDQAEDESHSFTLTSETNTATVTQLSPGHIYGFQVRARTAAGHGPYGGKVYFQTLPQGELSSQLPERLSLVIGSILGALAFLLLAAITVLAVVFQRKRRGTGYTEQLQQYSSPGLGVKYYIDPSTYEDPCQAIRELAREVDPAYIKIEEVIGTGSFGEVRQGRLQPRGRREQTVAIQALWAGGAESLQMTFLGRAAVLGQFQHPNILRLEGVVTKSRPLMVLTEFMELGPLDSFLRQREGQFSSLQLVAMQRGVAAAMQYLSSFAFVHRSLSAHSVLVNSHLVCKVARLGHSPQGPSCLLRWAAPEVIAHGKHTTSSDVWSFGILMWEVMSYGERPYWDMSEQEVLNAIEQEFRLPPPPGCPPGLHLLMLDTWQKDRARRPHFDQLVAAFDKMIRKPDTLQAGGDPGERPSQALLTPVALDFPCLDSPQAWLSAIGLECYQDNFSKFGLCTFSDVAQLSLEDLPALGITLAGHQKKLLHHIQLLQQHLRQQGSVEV
Protocol: as §1, §2

[5] = molecular target: BRD3 (Homo sapiens, UniProt Q15059); assay: Inhibition of bromodomains, BRD3; assay type: binding; details: Table 3 Bromodomain
BRD3, sequence (Q15059 whole entry): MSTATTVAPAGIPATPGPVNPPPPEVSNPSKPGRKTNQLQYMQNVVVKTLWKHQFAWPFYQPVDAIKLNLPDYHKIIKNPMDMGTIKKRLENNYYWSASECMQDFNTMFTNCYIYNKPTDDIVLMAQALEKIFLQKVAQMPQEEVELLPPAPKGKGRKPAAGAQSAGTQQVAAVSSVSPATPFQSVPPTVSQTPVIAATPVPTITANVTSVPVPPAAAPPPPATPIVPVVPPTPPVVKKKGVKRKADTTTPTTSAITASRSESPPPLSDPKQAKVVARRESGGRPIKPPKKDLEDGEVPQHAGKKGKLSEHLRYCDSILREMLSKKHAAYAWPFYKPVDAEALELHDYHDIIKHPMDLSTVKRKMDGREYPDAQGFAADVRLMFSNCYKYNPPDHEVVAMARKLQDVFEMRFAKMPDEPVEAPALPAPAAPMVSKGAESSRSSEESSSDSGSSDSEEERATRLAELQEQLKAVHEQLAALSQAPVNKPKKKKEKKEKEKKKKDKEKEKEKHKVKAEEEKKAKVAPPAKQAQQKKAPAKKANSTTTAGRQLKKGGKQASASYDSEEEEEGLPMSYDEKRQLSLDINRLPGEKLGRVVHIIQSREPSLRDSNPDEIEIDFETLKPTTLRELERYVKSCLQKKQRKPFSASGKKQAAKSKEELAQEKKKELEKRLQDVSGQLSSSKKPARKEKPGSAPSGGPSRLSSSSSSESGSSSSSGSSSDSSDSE
Excerpt: Inhibition of Sirtuins, Matrix Metalloproteinase, Bromodomains was Also Confirmed Using Standard Protocols and the Results are Present in Table 2.

T1 sequence (P10721 26-976 Y823D): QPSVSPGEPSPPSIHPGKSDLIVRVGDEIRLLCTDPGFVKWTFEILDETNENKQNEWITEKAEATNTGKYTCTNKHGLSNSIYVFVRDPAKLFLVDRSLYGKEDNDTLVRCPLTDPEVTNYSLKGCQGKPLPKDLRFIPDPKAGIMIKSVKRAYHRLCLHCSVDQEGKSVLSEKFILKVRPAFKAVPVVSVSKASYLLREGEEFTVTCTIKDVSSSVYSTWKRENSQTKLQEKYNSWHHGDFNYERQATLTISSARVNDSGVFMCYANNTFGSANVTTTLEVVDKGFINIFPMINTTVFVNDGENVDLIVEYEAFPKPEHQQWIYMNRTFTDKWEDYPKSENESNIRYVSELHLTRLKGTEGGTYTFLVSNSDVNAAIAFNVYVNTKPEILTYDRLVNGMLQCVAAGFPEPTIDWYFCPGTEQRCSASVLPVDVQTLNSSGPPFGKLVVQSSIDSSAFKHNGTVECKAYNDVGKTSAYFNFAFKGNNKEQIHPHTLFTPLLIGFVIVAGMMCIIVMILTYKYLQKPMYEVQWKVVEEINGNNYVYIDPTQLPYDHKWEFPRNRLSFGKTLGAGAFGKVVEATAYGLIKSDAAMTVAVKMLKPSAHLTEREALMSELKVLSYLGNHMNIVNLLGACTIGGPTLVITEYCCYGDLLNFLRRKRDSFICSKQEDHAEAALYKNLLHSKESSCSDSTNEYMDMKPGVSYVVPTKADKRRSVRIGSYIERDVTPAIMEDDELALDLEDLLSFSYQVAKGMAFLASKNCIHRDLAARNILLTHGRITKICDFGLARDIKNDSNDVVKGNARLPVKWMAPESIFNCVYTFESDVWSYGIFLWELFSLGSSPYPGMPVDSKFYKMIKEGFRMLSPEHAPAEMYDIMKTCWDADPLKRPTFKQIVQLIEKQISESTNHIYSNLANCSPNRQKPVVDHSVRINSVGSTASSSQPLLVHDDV

SMILES	IC50 [1] [nM]	IC50 [2] [nM]	IC50 [3] [nM]	IC50 [4] [nM]	IC50 [5] [µM]
COc1cc(-c2cc(=O)c3c(O)c(C/C=C(\C)CCC=C(C)C)c(O)cc3o2)ccc1O [FBL-03A]	> 20000	330	140	> 20000	–
COc1cc(-c2cc(=O)c3c(O)cc(O)c(C/C=C(\C)CCC=C(C)C)c3o2)ccc1O [FBL-03C]	> 20000	> 20000	84	270	–
COc1ccc(-c2cc(=O)c3c(O)c(C/C=C(\C)CCC=C(C)C)c(O)cc3o2)cc1OC [FBL-03D]	> 30000	> 30000	> 30000	> 30000	–
COc1cc(-c2cc(=O)c3c(O)c(CC=C(C)C)c(O)cc3o2)ccc1O [FBL-03B]	244	9.3	> 1000	> 1000	7.05
COc1cc(-c2cc(=O)c3c(O)cc(O)c(CC=C(C)C)c3o2)ccc1O [FBL-03G]	84	4220	> 1000	> 1000	8.69
